Measured values reported in patent US20240115557A1, “INHIBITORS OF RNA-GUIDED NUCLEASES AND USES THEREOF” (The Brigham and Women's Hospital, Inc., priority 2022, published 2024).

Columns and labels:
SpCas9 [1] = target: T1, SpCas9 (Streptococcus pyogenes serotype M1, UniProt Q99ZW2); assay: Strand displacement assay (SDA) / cumulative activity assay (CAA), SpCas9 primary screen; format: biochemical; conditions: Primary Screen (150 min); for Normalized Z score 1: replicate 1; for Normalized Z score 2: replicate 2
Procedure, shortened: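 SpCas9:gRNA RNP in 20 mM Tris-HCl pH 7.5, 100 mM KCl, 5 mM MgCl2 was used at 10 nM (2× stock) with Alexa Fluor 647-labelled substrate and excess quencher strand (1 nM and 5 nM, 2× stocks). Fluorescence was read after 2.5 h at 37 °C, where cleavage lets the quencher strand anneal.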

SpCas9 [2] = target: T1, SpCas9; assay: eGFP disruption assay, SpCas9, U2OS.eGFP.PEST cells; format: cell-based; conditions: for Normalized Z rep1 / Z score Rep1: replicate 1; for SpCas9 eGFP disruption Rep1: replicate 1, raw readout; for Normalized Z rep2 / Z socre Rep2: replicate 2; for SpCas9 eGFP disruption Rep2: replicate 2, raw readout
Procedure, shortened: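 U2OS.eGFP.PEST cells nucleofected with 300 ng SpCas9 plasmid plus 30 ng eGFP-targeting gRNA plasmid, or with SpCas9 RNP (10 pmol protein, 12 pmol gRNA). Cells then incubated 24 h with compound (20 μM in screening). Inhibition is read as rescue of eGFP fluorescence in paraformaldehyde-fixed, nuclear-stained cells.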

[3] = Cas9 = lower control, Ctrl = upper control
[4] = normalized, lower control about 0, upper control about 1

T1 sequence (Q99ZW2 whole entry): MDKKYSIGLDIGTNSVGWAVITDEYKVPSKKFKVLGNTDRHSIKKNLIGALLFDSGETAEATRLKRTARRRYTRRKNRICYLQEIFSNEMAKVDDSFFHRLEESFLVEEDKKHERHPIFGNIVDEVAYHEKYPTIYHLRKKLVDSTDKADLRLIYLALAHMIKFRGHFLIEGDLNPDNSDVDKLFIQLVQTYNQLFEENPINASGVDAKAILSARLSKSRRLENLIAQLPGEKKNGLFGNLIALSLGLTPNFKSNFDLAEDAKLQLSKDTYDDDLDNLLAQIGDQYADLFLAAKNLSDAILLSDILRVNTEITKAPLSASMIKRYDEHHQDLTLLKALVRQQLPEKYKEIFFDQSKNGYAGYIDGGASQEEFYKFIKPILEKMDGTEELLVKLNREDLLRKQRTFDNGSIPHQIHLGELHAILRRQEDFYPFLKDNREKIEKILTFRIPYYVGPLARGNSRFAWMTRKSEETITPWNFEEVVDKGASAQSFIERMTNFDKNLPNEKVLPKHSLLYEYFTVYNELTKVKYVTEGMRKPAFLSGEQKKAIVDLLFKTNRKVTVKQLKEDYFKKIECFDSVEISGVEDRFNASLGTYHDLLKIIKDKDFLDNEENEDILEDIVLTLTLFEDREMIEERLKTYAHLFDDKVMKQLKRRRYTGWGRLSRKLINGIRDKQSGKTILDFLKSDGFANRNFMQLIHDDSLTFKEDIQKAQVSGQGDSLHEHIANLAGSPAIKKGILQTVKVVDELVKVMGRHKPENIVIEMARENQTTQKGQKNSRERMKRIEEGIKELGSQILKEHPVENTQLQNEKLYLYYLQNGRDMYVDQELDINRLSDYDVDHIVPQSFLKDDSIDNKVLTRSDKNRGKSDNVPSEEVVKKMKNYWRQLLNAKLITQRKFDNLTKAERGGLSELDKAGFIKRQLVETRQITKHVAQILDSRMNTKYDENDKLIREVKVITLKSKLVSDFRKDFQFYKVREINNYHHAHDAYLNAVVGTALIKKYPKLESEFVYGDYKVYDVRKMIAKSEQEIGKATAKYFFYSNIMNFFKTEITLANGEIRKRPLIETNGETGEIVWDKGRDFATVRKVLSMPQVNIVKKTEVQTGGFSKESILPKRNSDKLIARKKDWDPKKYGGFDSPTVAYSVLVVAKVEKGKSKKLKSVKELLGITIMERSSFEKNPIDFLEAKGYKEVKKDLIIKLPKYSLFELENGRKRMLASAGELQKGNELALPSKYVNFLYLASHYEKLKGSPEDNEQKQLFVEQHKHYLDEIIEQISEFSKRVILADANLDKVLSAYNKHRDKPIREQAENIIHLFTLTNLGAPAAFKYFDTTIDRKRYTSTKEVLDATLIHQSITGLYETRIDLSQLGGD

SMILES	Average Normalized Z score (SpCas9 [1])	avg z score primary (SpCas9 [1])	Normalized Z score 1 (SpCas9 [1])	Normalized Z score 2 (SpCas9 [1])	Normalized Z rep1 (SpCas9 [2])	Z score Rep1 (SpCas9 [2])	SpCas9 eGFP disruption Rep1 (SpCas9 [2])	Normalized Z rep2 (SpCas9 [2])	Z socre Rep2 (SpCas9 [2])	SpCas9 eGFP disruption Rep2 (SpCas9 [2])	Average Normalized Z score (SpCas9 [1]; average of replicates)	SpCas9 eGFP disruption Rep1 (SpCas9 [2]; [3])	Normalized Z rep1 (SpCas9 [2]; [4])	SpCas9 eGFP disruption Rep2 (SpCas9 [2]; [3])	Normalized Z rep2 (SpCas9 [2]; [4])
CCC(C)NC(=O)c1cccc(Oc2cc(-c3ccccc3)ncn2)c1 (stereo not drawn) [Compound L663-0996]	0.39	7.57	0.43	0.35	−0.03	−0.21	75.44	−0.37	−3.54	69.294					
C=Cc1ccc(CSC2=NS(=O)(=O)c3ccccc3N2)cc1 [Compound K261-1443]	0.16	4.25	0.15	0.17	−0.17	−1.74	72.619	−0.19	−4.27	72.337					
Cc1ccc(C(C)NC(=O)c2cccc(Oc3cc(-c4ccccc4)ncn3)c2)cc1 (stereo not drawn) [Compound L663-1062]	0.28	5.51	0.28	0.29	−0.10	−0.64	74.182	−0.07	−0.70	74.913					
COc1ccc(-c2ccc3ncc4c(c3c2)n(-c2ccc(N3CCNCC3)c(C(F)(F)F)c2)c(=O)n4C)cn1.O=C(O)C=CC(=O)O [Compound S2749]		6.76	0.35	0.34	−3.98	−26.02	0	−4.01	−38.53	0	0.34				
Cc1ncc(-c2ccnc(Nc3ccc(S(C)(=O)=O)cc3)n2)n1C(C)C [Compound S2621]		6.88	0.43	0.26	−1.68	−10.98	43.978	−1.71	−16.40	43.815	0.35				
COc1ccc(C2CNC(=O)C2)cc1OC1CCCC1 (stereo not drawn) [Compound S2127]		3.63	0.17	0.17	−0.11	−0.74	73.9	−0.28	−2.66	71.027	0.17				
COc1ccc(-c2cc3c(C)nc(N)nc3n(C3CCC(OCCO)CC3)c2=O)cn1 (stereo not drawn) [Compound S2743]		8.74	0.45	0.44	−0.75	−4.92	61.679	−0.89	−8.50	59.461	0.45				
CNS(=O)(=O)c1ccc2nc(NC(=O)c3ccc(N4C(=O)CCC4=O)cc3)sc2c1 [Compound G786-1562]	0.06	6.00	0.05	0.07	−0.26	−2.41	57.872	−0.25	−3.72	60.132					
O=C(NCC1CCCO1)c1ccc(Oc2ccnc(-c3ccc(F)cc3)n2)cc1 (stereo not drawn) [Compound L662-0604]	0.35	6.87	0.33	0.38		0.38			0.09			77.166	0.06	76.48	0.01
O=C(NCc1ccc(F)cc1)c1ccc(Oc2ccnc(-c3cccc(F)c3)n2)cc1 [Compound L662-0977]	0.44	8.64	0.42	0.47	−0.03	−0.18	75.519	−0.08	−0.72	74.871					
Cc1c(P(=S)(N2CCOCC2)N2CCOCC2)cc(C#N)n1C [Compound T0503-9777]		4.67	0.06	0.06		1.11			1.28		0.06	60.694	0.08	57.686	0.06
O=C(NC1CCCC1)c1cccc(Oc2cc(-c3ccccc3)ncn2)c1 [Compound L663-1002]	0.27	5.18	0.22	0.31	−0.26	−1.70	71.095	0.01	0.05	76.396					
